# Paper PMC8299157 (Antiviral Research, 2021)
# Structures can show the parent of a compound that is named as a salt. Where two headings read alike, the source gives them in different places.
# Legend:
# human N7-MTase RNMT-RAM = human N7-MTase RNMT-RAM (Homo sapiens, UniProt O43148); experiment: Py-FLINT N7-MTase inhibition assay; type: biochemical; settings: for IC50 Py-FLINT (RNMT-RAM): 2 μM Py-FLINT probe, 20 μM SAM, 20 nM RNMT-RAM
# SARS-CoV-2 = type: cell-based; settings: for EC50: read-out: EC50 Antiviral assay
# in vitro = settings: human
# nsp14 = nsp14 (Severe acute respiratory syndrome coronavirus 2, UniProt P0DTD1); type: binding, SARS-CoV-2; settings: 100 μM inhibitor; for Inhibitor type (targeted binding site): from both FA competition assays
# [1] = molecular target: SARS-CoV-2 nsp14 N7-MTase (Severe acute respiratory syndrome coronavirus 2, UniProt P0DTD1); experiment: Py-FLINT N7-MTase inhibition assay; type: biochemical
# nsp14 N7-MTase = nsp14 N7-MTase (Severe acute respiratory syndrome coronavirus 2, UniProt P0DTD1); experiment: RP HPLC inhibition study of Gp3A N7-methylation; type: biochemical, SARS-CoV-2
# Chain of human N7-MTase RNMT-RAM (O43148 whole entry): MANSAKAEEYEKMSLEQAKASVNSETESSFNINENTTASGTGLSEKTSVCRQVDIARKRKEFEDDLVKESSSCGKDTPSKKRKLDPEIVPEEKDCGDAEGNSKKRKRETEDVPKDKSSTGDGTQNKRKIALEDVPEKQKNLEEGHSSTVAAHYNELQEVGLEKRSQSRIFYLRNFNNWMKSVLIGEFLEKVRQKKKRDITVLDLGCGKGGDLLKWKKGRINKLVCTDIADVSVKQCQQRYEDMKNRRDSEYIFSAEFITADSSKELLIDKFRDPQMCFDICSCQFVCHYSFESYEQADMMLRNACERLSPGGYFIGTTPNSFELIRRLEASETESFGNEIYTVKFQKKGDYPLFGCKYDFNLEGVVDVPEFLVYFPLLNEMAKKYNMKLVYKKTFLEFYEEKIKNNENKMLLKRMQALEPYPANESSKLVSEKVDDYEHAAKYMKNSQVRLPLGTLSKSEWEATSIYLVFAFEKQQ
# Chain of human N7-MTase RNMT-RAM (Q9BTL3 whole entry partner): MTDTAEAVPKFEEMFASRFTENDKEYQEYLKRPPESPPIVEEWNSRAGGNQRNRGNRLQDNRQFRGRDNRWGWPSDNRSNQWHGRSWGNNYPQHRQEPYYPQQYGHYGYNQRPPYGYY
Compound,IC50 (human N7-MTase RNMT-RAM),CC50/EC50 Selectivity index (SARS-CoV-2; Huh 7 cells),CC50 (in vitro),Inhibitor type (targeted binding site) (nsp14),also measured
"O=c1c2ccccc2[se]n1-c1ccccc1 [FI6, Ebselen]",23.8 ± 1.3 µM,–,–,–,–
"Cc1cc(-c2ccc(/N=N/c3ccc4c(S(=O)(=O)O)cc(S(=O)(=O)O)c(N)c4c3O)c(C)c2)ccc1/N=N/c1ccc2c(S(=O)(=O)O)cc(S(=O)(=O)O)c(N)c2c1O [FI7, Evans Blue]",0.33 ± 0.05 µM,1.15 ± 0.04,35.6 ± 1 µM,–,EC50 (SARS-CoV-2): 31 ± 0.9 µM
"CC(=O)OC[C@H]1O[C@@H]([S-])[C@H](OC(C)=O)[C@@H](OC(C)=O)[C@@H]1OC(C)=O.CCP(CC)CC.[Au+] [FI9, Auranofin]",–,–,–,bound by nsp14 within the nucleotide binding pocket,IC50 Py-FLINT (RNMT-RAM) (human N7-MTase RNMT-RAM): no human N7-MTase inhibition; EC50 (SARS-CoV-2): > 100 µM
"Oc1c(Cl)cc(Cl)c(Cl)c1Cc1c(O)c(Cl)cc(Cl)c1Cl [FI11, Hexachlorophene]",8 ± 3.2 µM,–,–,bound by nsp14 within the nucleotide binding pocket,CC50/EC50 Selectivity index (SARS-CoV-2): not active
"NCCOc1cc(C(=O)Nc2cc(OCCN)c3ccccc3n2)nc(C(=O)Nc2cc(OCCN)c3ccccc3n2)c1 [LI3, Pyridostatin xCF3COO^-]",3.1 µM,16.6 ± 6.1,59.3 ± 21.6 µM,–,p (Hill slope) ([1]; compounds selected from LOPAC1280 library (Table S3)): 18.1; EC50 (SARS-CoV-2): 3.58 ± 0.16 µM; EC50 (SARS-CoV-2; listed as Pyridostatin): < 50 µM; FA values in both binding assays and control sample (nsp14): high FA values in both assays as well as in the control sample; inhibition of m7Gp3A formation (RP HPLC) (nsp14 N7-MTase): lower potency
"Nc1c(S(=O)(=O)O)cc(Nc2ccc(Nc3nc(Cl)nc(Nc4cccc(S(=O)(=O)O)c4)n3)c(S(=O)(=O)O)c2)c2c1C(=O)c1ccccc1C2=O [LI4, Reactive Blue 2]",1.5 ± 0.28 µM,–,52.6 ± 10.2 µM,–,EC50 (SARS-CoV-2): 16.3 ± 0.3 µM; EC50 (SARS-CoV-2; listed as Reactive Blue 2): < 50 µM
"O=C1c2c(O)ccc(O)c2C(=O)c2c(NCCNCCO)ccc(NCCNCCO)c21 [LI5, Mitoxantrone 2HCl]",3.92 ± 0.21 µM,not active,< 0.04 µM,–,FA values in both binding assays and control sample (nsp14): high FA values in both assays as well as in the control sample; inhibition of m7Gp3A formation (RP HPLC) (nsp14 N7-MTase): lower potency
"N.N.N.N.N.N.N.N.N.N.N.N.N.N.[Cl-].[Cl-].[Cl-].[Cl-].[Cl-].[Cl-].[O-2].[O-2].[Ru+3].[Ru+3].[Ru+4] [LI6, Ruthenium red]",–,–,–,–,inhibition of m7Gp3A formation (RP HPLC) (nsp14 N7-MTase): lower potency
"CC(C)N(CCC(=O)c1ccc2ccccc2c1)Cc1ccccc1 [LI7, ZM 39923 HCl]",15.9 ± 3.3 µM,not active,12.2 ± 0.6 µM,bound by nsp14 within the nucleotide binding pocket,–
"O=c1c(O)c(-c2cc(O)c(O)c(O)c2)oc2cc(O)cc(O)c12 [LI8, Myricetin]",3.57 ± 0.36 µM,–,41.6 ± 7.1 µM,–,–
"COC(=O)c1c(NC(=O)c2cc3ccccc3o2)sc(C)c1C [OI1, Methyl 2-[(1-benzofuran-2-ylcarbonyl)amino]-4,5-dimethylthiophene-3-carboxylate]",> 100 µM,not active,> 100 µM,bound by nsp14 within the nucleotide binding pocket,IC50 Py-FLINT (RNMT-RAM) (human N7-MTase RNMT-RAM): no human N7-MTase inhibition
"Clc1cccc(/C=C/c2nn3c(-c4ccco4)nnc3s2)c1 [OI2, (E)-6-(3-Chlorostyryl)-3-(furan-2-yl)-[1,2,4]triazolo[3,4-b][1,3,4]thiadiazole]",> 100 µM,not active,71.3 ± 5.9 µM,bound by nsp14 within the nucleotide binding pocket,IC50 Py-FLINT (RNMT-RAM) (human N7-MTase RNMT-RAM): no human N7-MTase inhibition
Nc1ncnc2c1ncn2[C@@H]1O[C@H](C[C@@H](N)CC[C@H](N)C(=O)O)[C@@H](O)[C@H]1O [Sinefungin],0.22 ± 0.02 µM,–,> 100 µM,–,–
O=c1cc(-c2ccccc2)oc2cc(O)c(O)c(O)c12 [baicalein],–,–,–,–,inhibition of reaction progress in library screening ([1]; 50 μM library compound): did not observe such activity
